Data from patent US10940201B2, “Nucleic acid derivative having immunostimulatory activity” (Shionogi & Co., Ltd., priority 2015, dated 2021).

Tests used:
antigen-specific CTL = assay: Antigen-specific CTL inducibility in the absence of a tumor antigen peptide; type: in vivo, mouse
Protocol: On 7 days after second vaccination, the blood was collected, red blood cells was removed by BD Pharm Lyse (BD pharmingen), and the white blood cells were suspended in FACS buffer (1% fetal bovine serum, 2 mM PBS with EDTA). Anti-mouse CD16/32 monoclonal antibody (BioXcell) was added thereto, and Fc receptor blocking was carried out at 4° C. for 30 minutes. […] Then, staining was carried out with DAPI (Invitrogen) and the cells were washed twice with FACS buffer. It was resuspended in FACS buffer and analyzed by FACS verse Flow Cytometer (BD bioscience) and FAC Suite software (BD bioscience). For analysis, after DAPI negative fraction was gated, white blood cells fraction were provided using forward and side-way scattering as indicators. In the white blood cells fraction, both positive cells of Alexa 647-CD8 and PE-H-2Kb Tetramer were defined as CTLs. CTL ratio in white blood cells was used for evaluation.

B16F10 cells = assay: Anti-tumor effect in the absence of a tumor antigen peptide; type: in vivo, mouse; settings: Table 69, compared to ODN2006 (SEQ-49)
Protocol: After immunization by TRP2 peptide vaccine, B16F10 cells (ATTC) which is mouse melanoma expressing TRP2 protein was subcutaneously transplanted to evaluate anti-tumor effect. In a similar method to Example 3 A), on the next day that tetramer-positive ratio in peripheral blood of mouse vaccinated twice every 7 days was observed, B16F10 cells (1×10^5 cells/mouse) were subcutaneously transplanted in the right shoulder. The major and minor axes of the engrafted tumor were measured every 2 to 3 days, and the tumor volume was calculated by the formula: (major axis×minor axis^2)/2 Calculation method for indicators of anti-tumor effect For the adjuvant comprising ODN1826 100·(average tumor volume of adjuvant group)/(average tumor volume of ODN1826 group) For the adjuvant comprising ODN2006 100·(average tumor volume of adjuvant group)/(average tumor volume of ODN2006 group)
Antigen-specific CTL inducibility and anti-tumor effect of ODN2006 (SEQ-49) and SEQ-121 in the absence of a tumor antigen peptide were evaluated. In similar methods of A) and B) of Example 3, the effect of vaccine without a tumor antigen peptide was verified. Both of the antigen-specific CTL values of SEQ-49 and SEQ-121 were undetectable.

[1] = Subcutaneous irritation test in a single dose; type: in vivo, rats; settings: for Gross: Subcutaneous: White nudules / Histopathological, Subcutaneous: Cyst-like structure accompanied with formulation of fibrous capsule / Gross: Epidermis: Crust / Histopathological, Subcutaneous: Cyst-like structure: number of the observed animals; for Histopathological, Muscle layer: Monocyte infiltration / Histopathological, Subcutaneous: Edema / Histopathological, Subcutaneous: Granulomatous infiltration / Histopathological, Subcutaneous: Neutrophilic infiltration / Histopathological, Subcutaneous: Granulomatous inflammation / Histopathological, Subcutaneous: Monocyte infiltration / Histopathological, Subcutaneous: Necrosis: total score of grades; for Administration site, Gross: Subcutaneous: Red spots, Erythema / Administration site, Gross: Subcutaneous: White accumulation / Administration site, Histopathological: Subcutaneous: Cyst-like structure: number of the observed animals (of 3); for Administration site, Gross: Subcutaneous: Red spots, Erythema / Administration site, Gross: Subcutaneous: White accumulation / Administration site, Histopathological: Subcutaneous: Cyst-like structure / Number of deaths / Number of imminent dissections / Administration site, Histopathological: Muscle layer: Edema / Administration site, Histopathological: Muscle layer: Neutrophilic infiltration / Administration site, Histopathological: Subcutaneous: Bleeding / Administration site, Histopathological: Subcutaneous: Edema / Administration site, Histopathological: Subcutaneous: Neutrophilic infiltration: one day after administration; for Number of deaths / Number of imminent dissections / Administration site, Histopathological: Muscle layer: Edema / Administration site, Histopathological: Muscle layer: Neutrophilic infiltration / Administration site, Histopathological: Subcutaneous: Bleeding / Administration site, Histopathological: Subcutaneous: Edema / Administration site, Histopathological: Subcutaneous: Neutrophilic infiltration: 3 animals; for Administration site, Histopathological: Muscle layer: Edema / Administration site, Histopathological: Muscle layer: Neutrophilic infiltration / Administration site, Histopathological: Subcutaneous: Bleeding / Administration site, Histopathological: Subcutaneous: Edema / Administration site, Histopathological: Subcutaneous: Neutrophilic infiltration: total score (Minimal 1, Mild 2, Moderate 3)
Protocol: Subcutaneous irritation of a compound of the present invention was evaluated by gross examination and histopathological examination about the skin at necropsy one day, one and four week(s) after subcutaneous administration in a single dose.
The compound of the present invention was subcutaneously administered to the center of back between the shoulder blades of rats. At necropsy one day, one or four week(s) after administration (isoflurane anesthesia, euthanasia by bleeding), skin at the administration site was collected, grossly observed and fixed in 10% neutral buffered formalin solution. The fixed skin was cut out, embedded and put in a thin slice by the usual methods, and Hematoxylin-eosin (HE) stained sections were made. The pathological observers were observed the HE stained sections by an optical microscope, and recorded the histopathological findings. The changes in pathological findings were evaluated in four grades of Minimal; ±, Mild; +, Moderate; 2+ and Marked; 3+. When any grade was not appropriate for the finding, it was recorded as Positive.
SEQ-2, SEQ-49 or an adjuvant of the present invention was dissolved in phosphate buffered saline and administered at 4.71, 15.7 or 47.1 nmol/1 mL/site, respectively.

recombinant PCRV protein = assay: Inducibility of antibody production in immunization by PCRV antigen vaccine (antibody titer); type: in vivo; settings: A/J mice, recombinant PCRV protein with adjuvant, intradermal; antiserum Day 33; FIG. 15
Protocol: Perv nucleotide sequence (SEQ ID NO: 48) derived from Pseudomonas aeruginosa Strain PAO1 was cloned at NdeI-XhoI site in pET21a vector, and Escherichia coli strain BL21 (DE3) was transformed with the prepared plasmid. Strain perV-BL21 (DE3) was cultured in 500 mL of LB/Ampicillin liquid medium at 37° C., and 200 μL of 0.1 M IPTG was added when OD600 became 0.5 to induce expression of recombinant PCRV protein. After culturing at 16° C. for 18 hours, bacteria was separated by a centrifuge, and 15 ml of Buffer A (50 mM Tris-HCl (pH8.0), 0.2M NaCl) comprising 0.5% lysozyme (SIGMA Corporation) was added. After putting at 4° C. for 30 minutes, ultrasonic treatment was carried out. After centrifugation at 12,000 rpm for 10 minutes, soluble fraction was obtained. 1 mL of Ni-NTA agarose gel (QIAGEN) was added to Polyprep column (BIO-RAD Laboratories, Inc) and equilibrated with 10 mL of Buffer A. Soluble fraction was added to the column and passed. […] The resulting recombinant PCRV protein was measured the concentration with BCA assay kit (PIERCE) and kept at −80° C. […]
Antibody titer was measured as blow. […] 20 μL/well of 0.5 N sulfuric acid (Nacalai) was added, and absorbance at 450 nm was measured with a plate reader. The dilution ratio when absorbance at 450 nm is 1.0 was calculated and put as an antibody titer.

[2] = four weeks after administration, 4.71 nmol/site
[3] = four weeks after administration, 15.7 nmol/site
[4] = four weeks after administration, 47.1 nmol/site
[5] = one week after administration, 4.71 nmol/site
[6] = one week after administration, 15.7 nmol/site
[7] = one week after administration, 47.1 nmol/site

ODN2006 [SEQ-49]
Ratio of average value of antigen-specific CTL (antigen-specific CTL; Table 69, in the absence of a tumor antigen peptide): Undetectable | antigen-specific CTL values (antigen-specific CTL; absence of a tumor antigen peptide): undetectable | Tumor inhibition rate (Day 12 after transplantation) (B16F10 cells): 0.00% | Number of deaths/imminent dissections [1, 2]: 0/0 | Gross: Subcutaneous: White nudules [1, 2]: 0 | Histopathological, Subcutaneous: Cyst-like structure accompanied with formulation of fibrous capsule [1, 2]: 0 | Histopathological, Muscle layer: Monocyte infiltration [1, 2]: 0 | Histopathological, Subcutaneous: Edema [1, 2]: 0 | Histopathological, Subcutaneous: Granulomatous infiltration [1, 2]: 0 | Histopathological, Subcutaneous: Neutrophilic infiltration [1, 2]: 0 | Number of deaths/imminent dissections [1, 3]: 0/0 | Gross: Subcutaneous: White nudules [1, 3]: 0 | Histopathological, Subcutaneous: Cyst-like structure accompanied with formulation of fibrous capsule [1, 3]: 0 | Histopathological, Muscle layer: Monocyte infiltration [1, 3]: 0 | Histopathological, Subcutaneous: Edema [1, 3]: 0 | Histopathological, Subcutaneous: Granulomatous infiltration [1, 3]: 0 | Histopathological, Subcutaneous: Neutrophilic infiltration [1, 3]: 0 | Number of deaths/imminent dissections [1, 4]: 0/0 | Gross: Subcutaneous: White nudules [1, 4]: 0 | Histopathological, Subcutaneous: Cyst-like structure accompanied with formulation of fibrous capsule [1, 4]: 0 | Histopathological, Muscle layer: Monocyte infiltration [1, 4]: 0 | Histopathological, Subcutaneous: Edema [1, 4]: 0 | Histopathological, Subcutaneous: Granulomatous infiltration [1, 4]: 0 | Histopathological, Subcutaneous: Neutrophilic infiltration [1, 4]: 0 | Administration site, Gross: Subcutaneous: Red spots, Erythema ([1]; 4.71 nmol/site): 0 | Administration site, Gross: Subcutaneous: White accumulation ([1]; 4.71 nmol/site): 0 | Administration site, Histopathological: Subcutaneous: Cyst-like structure ([1]; 4.71 nmol/site): 0 | Administration site, Gross: Subcutaneous: Red spots, Erythema ([1]; 15.7 nmol/site): 0 | Administration site, Gross: Subcutaneous: White accumulation ([1]; 15.7 nmol/site): 0 | Administration site, Histopathological: Subcutaneous: Cyst-like structure ([1]; 15.7 nmol/site): 0 | Administration site, Gross: Subcutaneous: Red spots, Erythema ([1]; 47.1 nmol/site): 1 | Administration site, Gross: Subcutaneous: White accumulation ([1]; 47.1 nmol/site): 0 | Administration site, Histopathological: Subcutaneous: Cyst-like structure ([1]; 47.1 nmol/site): 0 | Number of deaths ([1]; 4.71 nmol/site): 0/0 | Number of imminent dissections ([1]; 4.71 nmol/site): 0/0 | Number of deaths ([1]; 15.7 nmol/site): 0/0 | Number of imminent dissections ([1]; 15.7 nmol/site): 0/0 | Number of deaths ([1]; 47.1 nmol/site): 0/0 | Number of imminent dissections ([1]; 47.1 nmol/site): 0/0 | Number of deaths/imminent dissections [1, 5]: 0/0 | Gross: Epidermis: Crust [1, 5]: 1 | Gross: Subcutaneous: White nudules [1, 5]: 0 | Histopathological, Subcutaneous: Cyst-like structure [1, 5]: 0 | Histopathological, Subcutaneous: Edema [1, 5]: 4 | Histopathological, Subcutaneous: Granulomatous inflammation [1, 5]: 0 | Histopathological, Subcutaneous: Monocyte infiltration [1, 5]: 3 | Histopathological, Subcutaneous: Necrosis [1, 5]: 0 | Histopathological, Subcutaneous: Neutrophilic infiltration [1, 5]: 0 | Number of deaths/imminent dissections [1, 6]: 0/0 | Gross: Epidermis: Crust [1, 6]: 1 | Gross: Subcutaneous: White nudules [1, 6]: 0 | Histopathological, Subcutaneous: Cyst-like structure [1, 6]: 0 | Histopathological, Subcutaneous: Edema [1, 6]: 6 | Histopathological, Subcutaneous: Granulomatous inflammation [1, 6]: 0 | Histopathological, Subcutaneous: Monocyte infiltration [1, 6]: 6 | Histopathological, Subcutaneous: Necrosis [1, 6]: 0 | Histopathological, Subcutaneous: Neutrophilic infiltration [1, 6]: 0 | Number of deaths/imminent dissections [1, 7]: 0/0 | Gross: Epidermis: Crust [1, 7]: 0 | Gross: Subcutaneous: White nudules [1, 7]: 0 | Histopathological, Subcutaneous: Cyst-like structure [1, 7]: 0 | Histopathological, Subcutaneous: Edema [1, 7]: 5 | Histopathological, Subcutaneous: Granulomatous inflammation [1, 7]: 0 | Histopathological, Subcutaneous: Monocyte infiltration [1, 7]: 8 | Histopathological, Subcutaneous: Necrosis [1, 7]: 0 | Histopathological, Subcutaneous: Neutrophilic infiltration [1, 7]: 0 | subcutaneous irritation findings four weeks after administration ([1]; rats, single subcutaneous dose, four weeks): inflammation was almost recovered | subcutaneous irritation findings one day after administration ([1]; rats, single subcutaneous dose, one day): acute inflammation, mainly neutrophil infiltration, was observed under the skin | subcutaneous irritation findings one week after administration ([1]; rats, single subcutaneous dose, one week): inflammation, mainly lymphocyte and macrophage, was observed from subcutaneous to dermis tissue | Administration site, Histopathological: Muscle layer: Edema ([1]; 4.71 nmol/site): 2 | Administration site, Histopathological: Muscle layer: Neutrophilic infiltration ([1]; 4.71 nmol/site): 4 | Administration site, Histopathological: Subcutaneous: Bleeding ([1]; 4.71 nmol/site): 2 | Administration site, Histopathological: Subcutaneous: Edema ([1]; 4.71 nmol/site): 4 | Administration site, Histopathological: Subcutaneous: Neutrophilic infiltration ([1]; 4.71 nmol/site): 6 | Administration site, Histopathological: Muscle layer: Edema ([1]; 15.7 nmol/site): 1 | Administration site, Histopathological: Muscle layer: Neutrophilic infiltration ([1]; 15.7 nmol/site): 6 | Administration site, Histopathological: Subcutaneous: Bleeding ([1]; 15.7 nmol/site): 1 | Administration site, Histopathological: Subcutaneous: Edema ([1]; 15.7 nmol/site): 5 | Administration site, Histopathological: Subcutaneous: Neutrophilic infiltration ([1]; 15.7 nmol/site): 6 | Administration site, Histopathological: Muscle layer: Edema ([1]; 47.1 nmol/site): 0 | Administration site, Histopathological: Muscle layer: Neutrophilic infiltration ([1]; 47.1 nmol/site): 5 | Administration site, Histopathological: Subcutaneous: Bleeding ([1]; 47.1 nmol/site): 2 | Administration site, Histopathological: Subcutaneous: Edema ([1]; 47.1 nmol/site): 5 | Administration site, Histopathological: Subcutaneous: Neutrophilic infiltration ([1]; 47.1 nmol/site): 6 | antibody titer (dilution ratio when absorbance at 450 nm is 1.0) (recombinant PCRV protein): 5.3×10^5
